Article PMC12935787, “Clinical pharmacokinetics and pharmacometabolomics of Andrographis paniculata capsules: Bridging drug disposition and metabolic response to precision medicine” (Naunyn-Schmiedeberg's Archives of Pharmacology, 2025)
Read-outs that look alike come from different tables or passages of the source.

Columns and labels:
[1] = Clinical pharmacokinetics, plasma LC-MS/MS after single oral dose of AP capsules; format: in vivo, human (healthy volunteers); settings: for concentration at 10 h / concentration at 12 h / concentration at 24 h / concentration at 0 h / concentration at 0.5 h / concentration at 1 h / concentration at 1.5 h / concentration at 2 h / concentration at 2.5 h / concentration at 3 h / concentration at 3.5 h / concentration at 4 h / concentration at 5 h / concentration at 6 h / concentration at 8 h: oral, 2000 mg; for concentration at 10 h / concentration at 12 h / concentration at 24 h / concentration at 0 h / concentration at 0.5 h / concentration at 1 h / concentration at 1.5 h / concentration at 2 h / concentration at 2.5 h / concentration at 3 h / concentration at 3.5 h / concentration at 4 h / concentration at 5 h / concentration at 6 h / concentration at 8 h / Mean concentration: 2000 mg AP capsules
Protocol: The protocol was published (Tee et al. [2022]).
Seven calibrators ranging from 1, 2, 5,10, 20, 50, and 100 ng mL^−1 were prepared. Frozen plasma was thawed, vortexed-mixes, and processed via protein precipitation: 50 µL plasma plus 100 µL 0.01% ammonia in methanol were vortexed (20 s), centrifuged (14800 rpm, 5 min) and […] supernatant was transferred to 2 mL vials with inserts. LC–MS/MS injection volume: 10 µL. The separation used a Phenomenex Gemini-NX C18 column (150 × 2.1 mm, 5 μm) with 0.01% ammonia (A) and acetonitrile/methanol (1:1, B) as mobile phases (0.30 mL min^-1). The gradient program: 40% B (0 min), linear increase to 95% B (3 min), hold to 5 min, sharp decrease to 10% B (5.01 min), hold to 7 min, return to 40% B (7.01 min), and re-equilibration to 10 min. Mass detection employed an LCMS-8060NX triple quadrupole with heated ESI in negative mode, monitoring specific MRM transitions: andrographolide (349.3 → 331.2/287.1), 14-deoxyandrographolide (331.2 → 108.0/301.1), and neoandrographolide (479.1 → 317.4/161.1).
Pharmacokinetic parameters were determined from plasma samples (5 subjects, 15 time points) analyzed via LC–MS/MS (Shimadzu 8060NX). […] Specific MRM transitions for andrographolide, 14-deoxyandrographolide, and neoandrographolide in plasma samples of subjects are illustrated in Figure S3. […] The dose-dependent concentration–time curves, pharmacokinetics profiles (Fig. 2a, b and c) and comprehensive individual PK data (Table S4) provide a foundation for developing personalized AP dosing regimens, supporting its precision medicine potential.

[2] = parameters: method as in Songvut et al. [2023b]; settings: ref Songvut et al. [2023b], cited from earlier work
[3] = parameters: method as in Panossian et al. [2000]; settings: single dose of AP equivalent to 20 mg andrographolide; ref Panossian et al. [2000]; cited from earlier work
[4] = human, plasma, 2000 mg AP capsules oral, fasting, n=5
[5] = AP dose corresponding to 60 mg of andrographolide

- concentration at 10 h ([1]; human, plasma, S4, 10.00 h, read-out: Plasma concentration): 0 ng/mL
- concentration at 12 h ([1]; human, plasma, S4, 12.00 h, read-out: Plasma concentration): 0 ng/mL
- concentration at 24 h ([1]; human, plasma, S4, 24.00 h, read-out: Plasma concentration): 0 ng/mL
- concentration at 0 h ([1]; human, plasma, S5, 0.00 h, read-out: Plasma concentration): 0 ng/mL
- concentration at 0.5 h ([1]; human, plasma, S5, 0.50 h, read-out: Plasma concentration): 0 ng/mL
- concentration at 1 h ([1]; human, plasma, S5, 1.00 h, read-out: Plasma concentration): 0 ng/mL
- concentration at 1.5 h ([1]; human, plasma, S5, 1.50 h, read-out: Plasma concentration): 2.52 ng/mL
- concentration at 2 h ([1]; human, plasma, S5, 2.00 h, read-out: Plasma concentration): 3.77 ng/mL
- concentration at 2.5 h ([1]; human, plasma, S5, 2.50 h, read-out: Plasma concentration): 3.17 ng/mL
- concentration at 3 h ([1]; human, plasma, S5, 3.00 h, read-out: Plasma concentration): 2.38 ng/mL
- concentration at 3.5 h ([1]; human, plasma, S5, 3.50 h, read-out: Plasma concentration): 1.59 ng/mL
- concentration at 4 h ([1]; human, plasma, S5, 4.00 h, read-out: Plasma concentration): 0.54 ng/mL
- concentration at 5 h ([1]; human, plasma, S5, 5.00 h, read-out: Plasma concentration): 1.62 ng/mL
- concentration at 6 h ([1]; human, plasma, S5, 6.00 h, read-out: Plasma concentration): 1.12 ng/mL
- concentration at 8 h ([1]; human, plasma, S5, 8.00 h, read-out: Plasma concentration): 0 ng/mL
- concentration at 10 h ([1]; human, plasma, S5, 10.00 h, read-out: Plasma concentration): 0 ng/mL
- concentration at 12 h ([1]; human, plasma, S5, 12.00 h, read-out: Plasma concentration): 0 ng/mL
- concentration at 24 h ([1]; human, plasma, S5, 24.00 h, read-out: Plasma concentration): 0 ng/mL
- concentration at 0 h ([1]; human, plasma, mean n=5, 0.00 h, read-out: Mean concentration): 0 ng/mL
- concentration at 0.5 h ([1]; human, plasma, mean n=5, 0.50 h, read-out: Mean concentration): 8.62 ng/mL
- concentration at 1 h ([1]; human, plasma, mean n=5, 1.00 h, read-out: Mean concentration): 7.7 ng/mL
- concentration at 1.5 h ([1]; human, plasma, mean n=5, 1.50 h, read-out: Mean concentration): 10.2 ng/mL
- concentration at 2 h ([1]; human, plasma, mean n=5, 2.00 h, read-out: Mean concentration): 6.21 ng/mL
- concentration at 2.5 h ([1]; human, plasma, mean n=5, 2.50 h, read-out: Mean concentration): 3.4 ng/mL
- concentration at 3 h ([1]; human, plasma, mean n=5, 3.00 h, read-out: Mean concentration): 3.02 ng/mL
- concentration at 3.5 h ([1]; human, plasma, mean n=5, 3.50 h, read-out: Mean concentration): 1.3 ng/mL
- concentration at 4 h ([1]; human, plasma, mean n=5, 4.00 h, read-out: Mean concentration): 0.11 ng/mL
- concentration at 5 h ([1]; human, plasma, mean n=5, 5.00 h, read-out: Mean concentration): 0.32 ng/mL
- concentration at 6 h ([1]; human, plasma, mean n=5, 6.00 h, read-out: Mean concentration): 0.22 ng/mL
- concentration at 8 h ([1]; human, plasma, mean n=5, 8.00 h, read-out: Mean concentration): 0 ng/mL
- concentration at 10 h ([1]; human, plasma, mean n=5, 10.00 h, read-out: Mean concentration): 0 ng/mL
- concentration at 12 h ([1]; human, plasma, mean n=5, 12.00 h, read-out: Mean concentration): 0 ng/mL
- concentration at 24 h ([1]; human, plasma, mean n=5, 24.00 h, read-out: Mean concentration): 0 ng/mL
- AUC(0-inf) [1, 4]: 20.9 ng·h/mL
- AUC(0-t) [1, 4]: 20.7 ng·h/mL
- Cmax [1, 4]: 10.2 ng/mL
- Tmax [1, 4]: 1.5 h
- half-life [1, 4]: 0.72 h
- Mean concentration ([1]; mean n=5, 0.00 h): 0 ng/mL
- Mean concentration ([1]; mean n=5, 0.50 h): 8.622 ng/mL
- Mean concentration ([1]; mean n=5, 1.00 h): 7.6996 ng/mL
- Mean concentration ([1]; mean n=5, 1.50 h): 10.145 ng/mL
- Mean concentration ([1]; mean n=5, 2.00 h): 6.2104 ng/mL
- Mean concentration ([1]; mean n=5, 2.50 h): 3.3999 ng/mL
- Mean concentration ([1]; mean n=5, 3.00 h): 3.0233 ng/mL
- Mean concentration ([1]; mean n=5, 3.50 h): 1.2987 ng/mL
- Mean concentration ([1]; mean n=5, 4.00 h): 0.1073 ng/mL
- Mean concentration ([1]; mean n=5, 5.00 h): 0.3249 ng/mL
- Mean concentration ([1]; mean n=5, 6.00 h): 0.2247 ng/mL
- Mean concentration ([1]; mean n=5, 8.00 h): 0 ng/mL
- Mean concentration ([1]; mean n=5, 10.00 h): 0 ng/mL
- Mean concentration ([1]; mean n=5, 12.00 h): 0 ng/mL
- Mean concentration ([1]; mean n=5, 24.00 h): 0 ng/mL
Structure (SMILES): C=C1CC[C@@H]2[C@](C)(CO)[C@H](O)CC[C@@]2(C)[C@@H]1C/C=C1/C(=O)OC[C@H]1O [andrographolide]
- Cmax, previously reported [2, 5]: 72.1 ± 28.7 ng/mL
- Tmax, previously reported [2, 5]: 0.8 h
- tolerance in human PK studies [2]: 180 to 360 mg/day
- Tmax, previously reported [3]: 1.5 to 2 h
